Consider 15 compounds from ChEMBL document CHEMBL1201862, “PubChem BioAssay data set” (2004).

Active and inactive are the calls of the source. Some results are limits rather than exact numbers.

The target in series [1] is Voltage-dependent T-type calcium channel subunit alpha-1H (Homo sapiens, UniProt O95180). The format is functional.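 Further: channel activity triggered by adding a high calcium stimulation buffer.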
A further series concerns the target Cytochrome P450 3A4 (Homo sapiens, UniProt P08684).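 Further: CYP3A4 tested as one member of a cytochrome P450 panel screen.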
Series [2] concerns the target T1, RNA-binding protein pos-1 (Caenorhabditis elegans, UniProt G5EF15).
T1 sequence (G5EF15 whole entry): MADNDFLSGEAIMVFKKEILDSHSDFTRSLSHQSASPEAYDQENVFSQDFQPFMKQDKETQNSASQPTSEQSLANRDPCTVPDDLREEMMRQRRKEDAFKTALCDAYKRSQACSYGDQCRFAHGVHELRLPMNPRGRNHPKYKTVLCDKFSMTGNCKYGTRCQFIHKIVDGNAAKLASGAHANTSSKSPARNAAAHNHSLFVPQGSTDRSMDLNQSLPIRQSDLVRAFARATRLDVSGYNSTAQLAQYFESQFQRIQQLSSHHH
Put plainly: disruptors of C. elegans POS-1 RNA interaction – biochemical, fluorescence polarization, dose response (AID 1964).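 Further: purified POS-1 fused to maltose binding protein made in E. coli; potency of compounds blocking POS-1 binding to fluorescent RNA.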

Series [3] concerns the target T2, Zinc finger protein mex-5 (Caenorhabditis elegans, UniProt Q9XUB2).
T2 sequence (Q9XUB2 whole entry): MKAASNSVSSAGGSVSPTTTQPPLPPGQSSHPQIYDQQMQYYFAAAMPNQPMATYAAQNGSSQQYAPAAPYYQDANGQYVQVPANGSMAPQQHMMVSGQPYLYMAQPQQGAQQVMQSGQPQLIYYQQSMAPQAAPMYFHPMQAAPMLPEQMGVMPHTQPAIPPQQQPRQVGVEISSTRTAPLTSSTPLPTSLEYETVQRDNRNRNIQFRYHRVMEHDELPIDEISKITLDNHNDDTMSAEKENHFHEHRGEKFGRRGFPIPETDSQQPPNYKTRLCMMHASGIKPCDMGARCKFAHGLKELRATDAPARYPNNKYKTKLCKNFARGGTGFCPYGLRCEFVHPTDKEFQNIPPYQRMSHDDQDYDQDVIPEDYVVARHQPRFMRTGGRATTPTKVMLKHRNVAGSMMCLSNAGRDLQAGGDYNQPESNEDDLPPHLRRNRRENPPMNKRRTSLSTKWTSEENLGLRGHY
The experiment in a line: potency of MEX-5 RNA-binding blockers – biochemical, C. elegans, fluorescence polarization, dose response (AID 1960).

For series [4], the target named is Eukaryotic translation initiation factor 4E (Mus musculus, UniProt P63073). Put plainly: blockers of eIF4G binding by eIF4E – biochemical, TR-FRET, dose response (AID 855).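 Further: potency for disrupting eIF4E binding to eIF4GI seen as loss of FRET.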 The format is functional.
For another series, the target named is T3, Coagulation factor XII (Homo sapiens, UniProt P00748).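 Further: activated factor XIIa alpha cleaving a fluorogenic AMC peptide substrate; inhibitor potency from loss of enzyme activity.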
T3 sequence (P00748 whole entry): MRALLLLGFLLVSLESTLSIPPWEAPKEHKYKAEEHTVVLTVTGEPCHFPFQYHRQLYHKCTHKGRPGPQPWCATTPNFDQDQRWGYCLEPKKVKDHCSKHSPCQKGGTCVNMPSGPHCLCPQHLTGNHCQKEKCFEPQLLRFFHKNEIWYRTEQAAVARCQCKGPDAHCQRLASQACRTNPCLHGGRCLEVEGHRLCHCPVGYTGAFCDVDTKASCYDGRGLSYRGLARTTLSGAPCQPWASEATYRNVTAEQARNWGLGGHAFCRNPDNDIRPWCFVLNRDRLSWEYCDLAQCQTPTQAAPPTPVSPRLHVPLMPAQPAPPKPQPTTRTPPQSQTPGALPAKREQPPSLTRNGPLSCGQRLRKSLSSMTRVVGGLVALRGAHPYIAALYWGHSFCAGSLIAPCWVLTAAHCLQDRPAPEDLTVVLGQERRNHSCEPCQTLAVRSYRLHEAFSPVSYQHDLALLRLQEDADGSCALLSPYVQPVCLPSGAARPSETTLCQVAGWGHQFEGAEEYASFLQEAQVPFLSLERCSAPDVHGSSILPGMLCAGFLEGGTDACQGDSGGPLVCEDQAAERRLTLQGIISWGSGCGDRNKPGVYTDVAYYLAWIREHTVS
Type of series: functional.

Series [5] addresses Luciferin 4-monooxygenase (Photinus pyralis, UniProt P08659). Put plainly: inhibition of purified Photinus pyralis luciferase – biochemical, luminescence, dose response (AID 1891).
Series [6] is described as follows: Luminescence Cell-Based Dose Confirmation HTS to Identify Inhibitors of Platelet Dense Granule Release. [Related pubchem assays: 1663 (Primary HTS), 1678 (Summary of Project)]. Type of series: functional.
For series [7], the target named is Glyceraldehyde-3-phosphate dehydrogenase (Homo sapiens, UniProt P04406).
Series [8] addresses T4, Alkaline phosphatase, tissue-nonspecific isozyme (Homo sapiens, UniProt P05186).
T4 sequence (P05186 whole entry): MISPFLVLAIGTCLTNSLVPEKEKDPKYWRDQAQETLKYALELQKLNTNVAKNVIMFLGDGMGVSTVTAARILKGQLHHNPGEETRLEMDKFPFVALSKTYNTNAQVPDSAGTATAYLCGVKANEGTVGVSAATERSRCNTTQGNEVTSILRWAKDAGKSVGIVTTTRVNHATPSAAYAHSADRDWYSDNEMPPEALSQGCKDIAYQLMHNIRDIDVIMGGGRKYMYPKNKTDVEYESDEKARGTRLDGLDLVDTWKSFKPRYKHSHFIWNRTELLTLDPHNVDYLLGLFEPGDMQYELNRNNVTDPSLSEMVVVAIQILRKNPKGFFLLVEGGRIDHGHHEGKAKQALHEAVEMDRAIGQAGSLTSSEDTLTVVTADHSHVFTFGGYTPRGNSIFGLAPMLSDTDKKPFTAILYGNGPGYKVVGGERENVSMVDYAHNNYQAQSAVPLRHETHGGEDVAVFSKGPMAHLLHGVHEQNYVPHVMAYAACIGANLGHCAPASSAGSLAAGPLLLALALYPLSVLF
The experiment in a line: potency against alkaline phosphatase TNAP – biochemical, luminescent, dose response, SAR follow-up (AID 1056).

In another series the target is T5, Protein skinhead-1 (Caenorhabditis elegans, UniProt P34707).
T5 sequence (P34707 whole entry): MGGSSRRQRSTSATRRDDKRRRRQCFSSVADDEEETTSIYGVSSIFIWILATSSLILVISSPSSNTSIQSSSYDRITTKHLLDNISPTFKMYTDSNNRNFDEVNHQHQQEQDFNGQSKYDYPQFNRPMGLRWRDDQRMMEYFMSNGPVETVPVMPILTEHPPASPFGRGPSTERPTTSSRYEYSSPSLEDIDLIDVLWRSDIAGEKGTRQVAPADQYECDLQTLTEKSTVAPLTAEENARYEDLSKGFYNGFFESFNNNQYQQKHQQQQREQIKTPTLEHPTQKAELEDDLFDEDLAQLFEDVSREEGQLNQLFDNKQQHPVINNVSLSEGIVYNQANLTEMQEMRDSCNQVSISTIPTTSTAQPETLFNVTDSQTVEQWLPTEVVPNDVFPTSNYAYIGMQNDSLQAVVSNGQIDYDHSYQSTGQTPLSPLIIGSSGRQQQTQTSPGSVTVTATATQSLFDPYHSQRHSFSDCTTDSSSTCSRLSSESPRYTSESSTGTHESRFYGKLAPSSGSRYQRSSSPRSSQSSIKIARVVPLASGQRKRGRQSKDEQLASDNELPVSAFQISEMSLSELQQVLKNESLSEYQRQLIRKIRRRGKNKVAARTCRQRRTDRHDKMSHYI
The format is functional.

The nature of series [9]: viability of uninfected HEp-2 cells – cell-based, HTS, cytotoxicity control for RSV inhibitor project, dose response (AID 2410). The format is functional. The following applies: human respiratory syncytial virus.
A further series has as its target T6, Aminopeptidase N (Plasmodium falciparum FcB1/Columbia, UniProt O96935).
T6 sequence (O96935 whole entry): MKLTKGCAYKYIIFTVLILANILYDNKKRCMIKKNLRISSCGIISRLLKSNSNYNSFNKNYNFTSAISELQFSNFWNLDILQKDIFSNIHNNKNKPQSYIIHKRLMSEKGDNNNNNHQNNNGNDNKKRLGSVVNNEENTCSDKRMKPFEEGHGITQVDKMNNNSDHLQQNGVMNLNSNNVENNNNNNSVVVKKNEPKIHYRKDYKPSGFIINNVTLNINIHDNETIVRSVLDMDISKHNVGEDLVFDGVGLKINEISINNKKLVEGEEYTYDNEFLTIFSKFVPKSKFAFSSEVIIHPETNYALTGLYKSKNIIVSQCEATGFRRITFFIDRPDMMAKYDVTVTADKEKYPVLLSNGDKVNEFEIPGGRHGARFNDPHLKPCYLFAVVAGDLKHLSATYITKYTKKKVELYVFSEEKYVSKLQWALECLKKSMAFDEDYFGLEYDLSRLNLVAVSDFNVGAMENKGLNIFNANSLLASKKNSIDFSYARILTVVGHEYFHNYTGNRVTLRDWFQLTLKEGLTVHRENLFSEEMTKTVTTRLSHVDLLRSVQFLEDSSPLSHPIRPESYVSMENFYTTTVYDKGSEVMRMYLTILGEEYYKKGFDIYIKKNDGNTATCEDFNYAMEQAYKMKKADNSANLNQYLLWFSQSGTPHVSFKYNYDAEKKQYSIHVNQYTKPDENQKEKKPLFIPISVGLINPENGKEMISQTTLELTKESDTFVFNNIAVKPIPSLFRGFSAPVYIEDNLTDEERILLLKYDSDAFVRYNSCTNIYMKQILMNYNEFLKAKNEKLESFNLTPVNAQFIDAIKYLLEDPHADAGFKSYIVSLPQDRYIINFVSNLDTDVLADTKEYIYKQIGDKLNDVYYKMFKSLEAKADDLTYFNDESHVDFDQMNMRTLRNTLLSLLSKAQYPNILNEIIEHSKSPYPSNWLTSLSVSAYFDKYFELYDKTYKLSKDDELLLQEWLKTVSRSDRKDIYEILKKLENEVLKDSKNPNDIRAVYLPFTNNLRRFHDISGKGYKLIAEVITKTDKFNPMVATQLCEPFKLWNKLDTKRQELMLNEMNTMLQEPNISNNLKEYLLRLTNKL
Put plainly: malaria alanyl aminopeptidase activity blockers – biochemical, fluorogenic H-Leu-NHMec substrate, 1536-well (AID 1445). The arrangement: species or system Plasmodium falciparum 3D7, 3D7.

The target in a further series is T7, Leucine aminopeptidase (Plasmodium falciparum 3D7, UniProt Q8IL11).
T7 sequence (Q8IL11 whole entry): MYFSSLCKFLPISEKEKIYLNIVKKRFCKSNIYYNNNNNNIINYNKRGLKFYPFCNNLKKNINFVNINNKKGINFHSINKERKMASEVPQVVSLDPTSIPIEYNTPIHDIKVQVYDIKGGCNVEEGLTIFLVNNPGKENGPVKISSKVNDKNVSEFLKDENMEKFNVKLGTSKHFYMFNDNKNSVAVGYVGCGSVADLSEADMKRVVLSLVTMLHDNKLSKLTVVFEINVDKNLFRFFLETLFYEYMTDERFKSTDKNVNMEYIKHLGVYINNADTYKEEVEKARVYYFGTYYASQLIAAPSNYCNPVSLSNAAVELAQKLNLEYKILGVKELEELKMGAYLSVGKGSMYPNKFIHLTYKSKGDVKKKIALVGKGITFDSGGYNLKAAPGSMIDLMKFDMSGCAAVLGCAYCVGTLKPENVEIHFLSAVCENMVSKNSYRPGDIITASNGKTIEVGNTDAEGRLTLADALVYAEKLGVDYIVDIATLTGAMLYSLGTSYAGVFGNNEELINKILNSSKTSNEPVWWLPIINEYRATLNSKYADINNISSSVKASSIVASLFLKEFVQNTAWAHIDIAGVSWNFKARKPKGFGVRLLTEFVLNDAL
The experiment in a line: P. falciparum M17LAP inhibitors, primary screen, biochemical, fluorogenic H-Leu-NHMec substrate, 1536-well (AID 1619). The format is functional.

Glyceraldehyde-3-phosphate dehydrogenase, sequence (P04406 whole entry): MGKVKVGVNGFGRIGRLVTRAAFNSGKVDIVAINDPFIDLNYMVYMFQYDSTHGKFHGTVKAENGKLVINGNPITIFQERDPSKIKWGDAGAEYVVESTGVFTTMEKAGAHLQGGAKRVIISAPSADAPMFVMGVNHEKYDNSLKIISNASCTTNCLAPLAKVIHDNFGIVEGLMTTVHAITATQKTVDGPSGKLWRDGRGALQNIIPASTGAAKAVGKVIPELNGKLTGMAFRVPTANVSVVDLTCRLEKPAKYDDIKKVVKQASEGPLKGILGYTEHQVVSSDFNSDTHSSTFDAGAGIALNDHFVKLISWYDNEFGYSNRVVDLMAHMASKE
Voltage-dependent T-type calcium channel subunit alpha-1H, sequence (O95180 whole entry): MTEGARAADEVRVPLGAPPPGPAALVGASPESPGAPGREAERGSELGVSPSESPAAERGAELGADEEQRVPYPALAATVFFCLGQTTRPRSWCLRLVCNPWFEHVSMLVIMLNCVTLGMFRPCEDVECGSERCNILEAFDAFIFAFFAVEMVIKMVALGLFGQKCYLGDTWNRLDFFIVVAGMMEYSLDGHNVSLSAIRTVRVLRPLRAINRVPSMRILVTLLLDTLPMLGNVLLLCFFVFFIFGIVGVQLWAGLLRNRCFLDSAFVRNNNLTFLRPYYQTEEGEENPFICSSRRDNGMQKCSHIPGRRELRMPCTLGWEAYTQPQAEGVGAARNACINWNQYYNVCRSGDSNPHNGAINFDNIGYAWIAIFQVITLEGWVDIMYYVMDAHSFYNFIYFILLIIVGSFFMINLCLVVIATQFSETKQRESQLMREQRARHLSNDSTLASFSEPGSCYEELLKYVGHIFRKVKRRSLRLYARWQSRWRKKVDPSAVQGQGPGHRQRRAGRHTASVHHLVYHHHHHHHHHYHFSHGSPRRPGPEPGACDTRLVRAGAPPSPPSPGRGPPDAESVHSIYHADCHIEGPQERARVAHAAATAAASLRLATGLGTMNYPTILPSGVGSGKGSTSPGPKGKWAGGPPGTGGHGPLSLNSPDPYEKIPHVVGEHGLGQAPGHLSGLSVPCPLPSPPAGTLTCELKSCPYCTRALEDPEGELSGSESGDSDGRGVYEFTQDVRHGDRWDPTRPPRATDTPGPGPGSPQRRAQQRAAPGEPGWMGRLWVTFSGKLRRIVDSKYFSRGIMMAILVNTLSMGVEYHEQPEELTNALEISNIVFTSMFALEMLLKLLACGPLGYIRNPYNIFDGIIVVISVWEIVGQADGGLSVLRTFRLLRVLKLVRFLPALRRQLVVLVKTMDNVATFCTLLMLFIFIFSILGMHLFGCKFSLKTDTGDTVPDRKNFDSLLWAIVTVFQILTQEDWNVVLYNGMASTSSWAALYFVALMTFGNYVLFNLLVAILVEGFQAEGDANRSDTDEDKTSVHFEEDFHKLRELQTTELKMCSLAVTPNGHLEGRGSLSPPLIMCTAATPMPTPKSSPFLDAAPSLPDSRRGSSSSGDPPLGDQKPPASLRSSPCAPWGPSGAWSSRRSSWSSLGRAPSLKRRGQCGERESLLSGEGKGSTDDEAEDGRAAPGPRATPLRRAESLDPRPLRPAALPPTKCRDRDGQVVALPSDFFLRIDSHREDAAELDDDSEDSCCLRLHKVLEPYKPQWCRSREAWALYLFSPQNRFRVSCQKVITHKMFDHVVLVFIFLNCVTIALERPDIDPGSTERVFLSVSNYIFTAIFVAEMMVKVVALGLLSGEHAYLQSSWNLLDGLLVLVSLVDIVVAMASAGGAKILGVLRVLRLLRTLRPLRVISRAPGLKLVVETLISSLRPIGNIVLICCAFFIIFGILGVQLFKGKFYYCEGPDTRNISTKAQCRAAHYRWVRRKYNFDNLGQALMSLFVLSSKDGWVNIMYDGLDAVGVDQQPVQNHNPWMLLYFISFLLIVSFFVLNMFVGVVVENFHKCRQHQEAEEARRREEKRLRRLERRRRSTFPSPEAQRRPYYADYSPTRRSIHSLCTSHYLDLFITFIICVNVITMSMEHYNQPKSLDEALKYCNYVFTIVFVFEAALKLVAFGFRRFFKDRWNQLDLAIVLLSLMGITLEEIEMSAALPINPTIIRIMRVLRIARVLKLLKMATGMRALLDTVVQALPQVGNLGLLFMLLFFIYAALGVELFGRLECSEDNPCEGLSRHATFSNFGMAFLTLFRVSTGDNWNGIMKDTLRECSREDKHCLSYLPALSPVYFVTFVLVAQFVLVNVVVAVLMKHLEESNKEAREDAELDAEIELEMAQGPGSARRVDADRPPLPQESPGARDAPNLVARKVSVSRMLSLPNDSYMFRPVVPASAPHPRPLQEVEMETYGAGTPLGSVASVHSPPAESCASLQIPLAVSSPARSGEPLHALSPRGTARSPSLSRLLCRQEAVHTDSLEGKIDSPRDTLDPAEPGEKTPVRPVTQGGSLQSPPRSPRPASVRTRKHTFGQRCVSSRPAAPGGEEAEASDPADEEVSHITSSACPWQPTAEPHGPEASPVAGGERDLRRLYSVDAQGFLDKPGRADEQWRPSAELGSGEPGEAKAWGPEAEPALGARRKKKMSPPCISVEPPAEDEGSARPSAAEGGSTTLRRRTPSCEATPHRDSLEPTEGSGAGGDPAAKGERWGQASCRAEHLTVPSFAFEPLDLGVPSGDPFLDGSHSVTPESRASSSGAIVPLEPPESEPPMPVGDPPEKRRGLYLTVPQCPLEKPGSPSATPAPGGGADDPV
Eukaryotic translation initiation factor 4E, sequence (P63073 whole entry): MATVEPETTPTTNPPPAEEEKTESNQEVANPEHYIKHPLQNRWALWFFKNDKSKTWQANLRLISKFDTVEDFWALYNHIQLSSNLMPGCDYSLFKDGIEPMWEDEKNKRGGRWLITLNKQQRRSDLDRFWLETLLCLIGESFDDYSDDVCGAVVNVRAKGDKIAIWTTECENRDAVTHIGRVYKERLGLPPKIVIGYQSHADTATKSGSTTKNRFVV
Luciferin 4-monooxygenase, sequence (P08659 whole entry): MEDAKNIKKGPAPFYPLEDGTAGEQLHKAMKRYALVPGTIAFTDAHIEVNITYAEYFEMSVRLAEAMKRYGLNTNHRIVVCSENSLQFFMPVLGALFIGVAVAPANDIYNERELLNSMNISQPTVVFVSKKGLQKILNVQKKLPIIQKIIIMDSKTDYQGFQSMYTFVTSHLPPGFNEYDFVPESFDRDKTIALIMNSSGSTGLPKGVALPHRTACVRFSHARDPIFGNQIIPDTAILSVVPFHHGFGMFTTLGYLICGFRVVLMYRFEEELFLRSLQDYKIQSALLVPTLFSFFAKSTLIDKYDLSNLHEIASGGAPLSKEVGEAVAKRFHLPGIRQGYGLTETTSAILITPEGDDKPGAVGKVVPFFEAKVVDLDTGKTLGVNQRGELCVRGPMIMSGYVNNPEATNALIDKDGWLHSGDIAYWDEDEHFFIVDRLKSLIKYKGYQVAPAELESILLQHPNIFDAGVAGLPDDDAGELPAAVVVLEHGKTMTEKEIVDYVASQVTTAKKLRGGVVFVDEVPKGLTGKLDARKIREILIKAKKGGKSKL
Cytochrome P450 3A4, sequence (P08684 whole entry): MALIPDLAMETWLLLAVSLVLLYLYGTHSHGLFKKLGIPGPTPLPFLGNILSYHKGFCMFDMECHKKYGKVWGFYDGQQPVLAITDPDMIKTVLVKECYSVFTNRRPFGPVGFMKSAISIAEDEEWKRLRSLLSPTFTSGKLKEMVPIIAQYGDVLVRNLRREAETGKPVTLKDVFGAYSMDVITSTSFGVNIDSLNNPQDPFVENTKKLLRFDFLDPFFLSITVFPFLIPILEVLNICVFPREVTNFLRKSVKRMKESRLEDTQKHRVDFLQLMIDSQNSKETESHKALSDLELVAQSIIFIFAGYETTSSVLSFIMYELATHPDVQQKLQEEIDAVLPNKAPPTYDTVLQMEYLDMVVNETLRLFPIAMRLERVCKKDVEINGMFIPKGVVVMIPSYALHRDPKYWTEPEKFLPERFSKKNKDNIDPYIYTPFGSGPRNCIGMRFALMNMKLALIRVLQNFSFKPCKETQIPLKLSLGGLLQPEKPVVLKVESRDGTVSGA

Regarding `O=C(Nc1ccccc1Cl)c1cc(S(=O)(=O)N2CCCCC2)ccc1N1CCOCC1`, the concentration giving a half-maximal response (EC50) in series [1] is 5.14 µM (active).
Regarding `O=C(c1ccc(Cl)cc1)N1CCN(C(=O)c2ccco2)CC1`, the AC50 result at Cytochrome P450 3A4 is on record as “inconclusive”.
With `COc1ccc(C2c3cc(OC)c(OC)cc3CCN2S(C)(=O)=O)cc1OC` (configuration not stated), the EC50 in series [2] and in series [3] was > 300 µM (not active) each time. Moreover, the IC50 was 50 µM (inactive) in series [4] and > 50 µM (inactive) at Coagulation factor XII.
`COc1cc(OC)c(NC(=O)CS(=O)(=O)Cc2nc(-c3ccc(C)cc3)oc2C)cc1Cl`: the EC50 in [1] was 5.56 µM (active).
On to `CCn1c(C(=O)N2CCC(C(=O)NCCCSC3CCCCC3)CC2)cc2sccc21`, for which the concentration giving a half-maximal response (EC50) in series [5] is 25 µM (active); in series [6], > 112 µM (not active); in series [1] it was 3.51 µM (active).
As for `CCOC(=O)c1cc(-c2ccc(Cl)cc2)n[nH]1`, the concentration for half-maximal inhibition (IC50) was > 100 µM (not active) in series [7] and 2.35 µM (active) in [8].
As to `COc1ccccc1C(=O)Nc1ccc2ccccc2c1`, the IC50 is > 10 µM (inconclusive) in [7], > 10 µM (inactive) in [8] and 42.7 µM (active) on Protein skinhead-1.
As to `Cc1cc(C)cc(-n2nnc(C(=O)NCc3ccc4c(c3)OCO4)c2N)c1`, in [1], the EC50 was 2.39 µM (active).
Turning to `Cc1ccc(-c2cc(C(=O)O)[nH]n2)c(C)c1`, the IC50 in [7] was > 100 µM (not active); in [8] it was 3.34 µM (active).
On to `CCOC(=O)CC1C(=O)NCCN1c1nc2ccc(C)cn2c(=O)c1/C=C1\SC(=S)N(C(C)CC)C1=O` (configuration not stated), for which the cytotoxic concentration (CC50) in series [9] was 13.3 µM (active). In addition, the IC50 on Aminopeptidase N is 49.8 µM (active).
Turning to `CCOC(=O)c1ccc2c(c1)nc(C1CCN(S(=O)(=O)c3cccs3)CC1)n2CC`, the IC50 on Coagulation factor XII is > 50 µM (inactive).
As to `CCOc1cc(/C=C(/C#N)c2nc3ccccc3[nH]2)ccc1OCc1ccc(C(=O)O)o1`, the figures for the IC50 on Leucine aminopeptidase and on Aminopeptidase N were 9.14 µM (active) and 60.8 µM (active), respectively.
On to `O=S(=O)(Nc1ccc2ncccc2c1)c1cc(Cl)ccc1Cl`, for which the IC50 is > 100 µM (not active) in series [7] and > 100 µM (inactive) in [8].
`O=C(O)CC1(CC(=O)NCc2ccncc2)CCCCC1`: the IC50 at Coagulation factor XII was > 50 µM (inactive).
As to `Cc1cc(C)n(/N=C/c2ccccc2)c(=O)c1C#N`, the IC50 on Coagulation factor XII is > 50 µM (inactive).
